In US6586604B2, “Tricyclic amine derivatives” (Daiichi Pharmaceutical Co., Ltd., priority 1996, dated 2003):
In brackets after ≈: the same amount, converted by molar mass.

Key:
S. epidermidis, 56500 = assay: Antimicrobial activity (MIC), standard method of the Japan Chemotherapeutic Society; type: cell-based; conditions: for MIC: Staphylococcus epidermidis, read-out: minimum inhibitory concentration (MIC)
Protocol: (§1) The antimicrobial activity of the compounds according to the present invention was determined in accordance with the standard method specified by the Japan Chemotherapeutic Society.

Ps. Aeruginosa, 32121 = assay: as above; type: cell-based; conditions: for MIC: Pseudomonas aeruginosa, read-out: minimum inhibitory concentration (MIC)
Protocol: as §1

S. aureus, 870307 = assay: as above; type: cell-based; conditions: for MIC: Staphylococcus aureus, read-out: minimum inhibitory concentration (MIC)
Protocol: as §1

Pr. Mirabilis, IFO-3849 = assay: as above; type: cell-based; conditions: for MIC: Proteus mirabilis, IFO3849, read-out: minimum inhibitory concentration (MIC)
Protocol: as §1

[1] = system: Ps. Maltophilia, 11D-1275; assay: as above; type: cell-based; conditions: for MIC: Stenotrophomonas maltophilia, read-out: minimum inhibitory concentration (MIC)
Protocol: as §1

Ps. Aeruginosa, 32104 = assay: as above; type: cell-based; conditions: for MIC: Pseudomonas aeruginosa, read-out: minimum inhibitory concentration (MIC)
Protocol: as §1

Ser. Marcescens, 10100 = assay: as above; type: cell-based; conditions: for MIC: Serratia marcescens, read-out: minimum inhibitory concentration (MIC)
Protocol: as §1

Pr. vulgaris, 08601 = assay: as above; type: cell-based; conditions: for MIC: Proteus vulgaris, read-out: minimum inhibitory concentration (MIC)
Protocol: as §1

E. coil, NIHJ = assay: as above; type: cell-based; conditions: for MIC: read-out: minimum inhibitory concentration (MIC)
Protocol: as §1

S. aureaus, 209P = assay: as above; type: cell-based; conditions: for MIC: read-out: minimum inhibitory concentration (MIC)
Protocol: as §1

[2] = system: Str. Faecalis, ATCC-19433; assay: as above; type: cell-based; conditions: for MIC: Enterococcus faecalis, ATCC19433, read-out: minimum inhibitory concentration (MIC)
Protocol: as §1

S. pneumoniae, J24 = assay: as above; type: cell-based; conditions: for MIC: Streptococcus pneumoniae, read-out: minimum inhibitory concentration (MIC)
Protocol: as §1

S. flexneli, 2A 5503 = assay: as above; type: cell-based; conditions: for minimum inhibitory concentration (MIC): S. flexneli, 2A 5503; for MIC: read-out: minimum inhibitory concentration (MIC)
Protocol: as §1

Str. Pyogenes, G-36 = assay: as above; type: cell-based; conditions: for MIC: Streptococcus pyogenes, read-out: minimum inhibitory concentration (MIC)
Protocol: as §1

Compound	minimum inhibitory concentration (MIC) (S. epidermidis, 56500)	minimum inhibitory concentration (MIC) (Ps. Aeruginosa, 32121) [µg/mL]	minimum inhibitory concentration (MIC) (S. aureus, 870307) [µg/mL]	minimum inhibitory concentration (MIC) (Pr. Mirabilis, IFO-3849) [µg/mL]	minimum inhibitory concentration (MIC) [1] [µg/mL]	minimum inhibitory concentration (MIC) (Ps. Aeruginosa, 32104) [µg/mL]	minimum inhibitory concentration (MIC) (Ser. Marcescens, 10100) [µg/mL]	minimum inhibitory concentration (MIC) (Pr. vulgaris, 08601)	minimum inhibitory concentration (MIC) (E. coil, NIHJ)	minimum inhibitory concentration (MIC) (S. aureaus, 209P)	minimum inhibitory concentration (MIC) [2] [µg/mL]	minimum inhibitory concentration (MIC) (S. pneumoniae, J24)	minimum inhibitory concentration (MIC) (S. flexneli, 2A 5503)	minimum inhibitory concentration (MIC) (Str. Pyogenes, G-36)	MIC (S. epidermidis, 56500) [ng/mL]	MIC (Ps. Aeruginosa, 32121) [µg/mL]	MIC (S. aureus, 870307) [µg/mL]	MIC (Pr. Mirabilis, IFO-3849) [µg/mL]	MIC [1] [µg/mL]	MIC (Ps. Aeruginosa, 32104) [µg/mL]	other results
Cc1c(N2CC3CC4CC4(N)C3C2)c(F)c(N)c2c(=O)c(C(=O)O)cn([C@@H]3C[C@@H]3F)c12 (stereo partly drawn) [Example 6, 5-Amino-7-{1-amino-4-azatricyclo[6.1.0.0^2,6]nonan-4-yl}-6-fluoro-1-[2-(S)-fluoro-1-(R)-cyclopropyl]-1,4-dihydro-8-methyl-4-oxoquinoline-4-carboxylic Acid]	≦0.003 μg/ml	0.025 (≈ 0.0581 µM)	0.05 (≈ 0.116 µM)	0.025 (≈ 0.0581 µM)	0.025 (≈ 0.0581 µM)	0.10 (≈ 0.232 µM)	0.05 (≈ 0.116 µM)	0.025 µg/mL (≈ 0.0581 µM)	≦0.003 μg/ml	≦0.003 μg/ml	0.013 (≈ 0.0302 µM)	≦0.003 μg/ml	≦0.003 μg/ml	≦0.003 μg/ml							
Nc1c(F)c(N2CC3CC4CC4(N)C3C2)c(F)c2c1c(=O)c(C(=O)O)cn2C1CC1 (stereo not drawn) [Example 1, 5-Amino-7-(1-amino-4-azatricyclo[6.1.0.0^2,6]-nonan-4-yl)-1-cyclopropyl-6,8-difluoro-1,4-dihydro-4-oxoquinoline-3-carboxylic Acid]															6 (≈ 0.0144 µM)	0.2 (≈ 0.48 µM)	0.1 (≈ 0.24 µM)	0.05 (≈ 0.12 µM)	0.05 (≈ 0.12 µM)	0.2 (≈ 0.48 µM)	MIC (Ser. Marcescens, 10100): 0.1 µg/mL (≈ 0.24 µM); MIC (Pr. vulgaris, 08601): 0.1 µg/mL (≈ 0.24 µM); MIC (E. coil, NIHJ): ≤ 3 ng/mL; MIC (S. aureaus, 209P): ≤ 3 ng/mL; MIC [2]: 0.025 µg/mL (≈ 0.06 µM); MIC (S. pneumoniae, J24): ≤ 3 ng/mL; MIC (S. flexneli, 2A 5503): ≤ 3 ng/mL; MIC (Str. Pyogenes, G-36): 6 ng/mL (≈ 0.0144 µM); melting point: 197 to 202 °C (dec.)
Cc1c(N2CC3CC4CC4(N)C3C2)c(F)cc2c(=O)c(C(=O)O)cn([C@@H]3C[C@@H]3F)c12 (stereo partly drawn) [Example 7, 7-(1-Amino-4-azabicyclo[6.1.0.0^2,6]nonan-4-yl)-6-fluoro-1-[2-(S)-fluoro-1-(R)-cyclopropyl]-8-methyl-1,4-dihydro-4-oxoquinoline-3-carboxylic Acid]	≦0.003 μg/ml	0.025 (≈ 0.0602 µM)	0.013 (≈ 0.0313 µM)	0.013 (≈ 0.0313 µM)	0.025 (≈ 0.0602 µM)	0.05 (≈ 0.12 µM)	0.025 (≈ 0.0602 µM)	≦0.003 μg/ml	≦0.003 μg/ml	≦0.003 μg/ml	0.013 (≈ 0.0313 µM)	≦0.003 μg/ml	≦0.003 μg/ml	≦0.003 μg/ml							
C[C@H]1COc2c(N3C[C@H]4CC5C[C@]5(N)[C@H]4C3)c(F)cc3c(=O)c(C(=O)O)cn1c23 (stereo partly drawn) [Example 2, 10-{(1R,2R,6S)-1-Amino-4-azatricyclo[6.1.0.0^2,6]nonan-4-yl}-9-fluoro-2,3-dihydro-3-(S)-methyl-7-oxo-7H-pyrido[1.2.3-de][1,4]benzoxazine-6-carboxylic Acid]	0.025 µg/mL (≈ 0.0626 µM)	0.05 (≈ 0.125 µM)	0.20 (≈ 0.501 µM)	0.10 (≈ 0.25 µM)	0.20 (≈ 0.501 µM)	0.20 (≈ 0.501 µM)	0.05 (≈ 0.125 µM)	0.025 µg/mL (≈ 0.0626 µM)	≦0.003 μg/ml	6 ng/mL (≈ 0.015 µM)	0.05 (≈ 0.125 µM)	0.013 µg/mL (≈ 0.0325 µM)	6 ng/mL (≈ 0.015 µM)	0.013 µg/mL (≈ 0.0325 µM)							
COc1c(N2CC3CC4CC4(N)C3C2)c(F)cc2c(=O)c(C(=O)O)cn([C@@H]3C[C@@H]3F)c12 (stereo partly drawn) [Example 5, 7-{1-Amino-4-azatricyclo[6.1.0.0^2,6]nonan-4-yl}-6-fluoro-1-[2-(S)-fluoro-1-(R)-cyclopropyl]-1,4-dihydro-8-methoxy-4-oxoquinoline-3-carboxylic Acid]															≤ 3	0.05 (≈ 0.116 µM)	0.013 (≈ 0.0301 µM)	≤ 0.003	0.05 (≈ 0.116 µM)	0.1 (≈ 0.232 µM)	MIC (Ser. Marcescens, 10100): 0.05 µg/mL (≈ 0.116 µM); MIC (Pr. vulgaris, 08601): 0.006 µg/mL (≈ 0.0139 µM); MIC (E. coil, NIHJ): ≤ 3 ng/mL; MIC (S. aureaus, 209P): ≤ 3 ng/mL; MIC [2]: 0.025 µg/mL (≈ 0.0579 µM); MIC (S. pneumoniae, J24): ≤ 3 ng/mL; MIC (S. flexneli, 2A 5503): ≤ 3 ng/mL; MIC (Str. Pyogenes, G-36): ≤ 3 ng/mL; melting point: 146 to 159 °C (dec.)
